Entries after “also recorded” stand apart in the source; their conditions may differ. Peptide text beside a SMILES is read from it.
Columns and labels:
FPR1 = biological target: T1, FPR1 (Homo sapiens, UniProt P21462); test: cell-based; type: binding
T1 construct: expressed in transfected cells; host or cells: HEK293T
T1 sequence (P21462 1-350): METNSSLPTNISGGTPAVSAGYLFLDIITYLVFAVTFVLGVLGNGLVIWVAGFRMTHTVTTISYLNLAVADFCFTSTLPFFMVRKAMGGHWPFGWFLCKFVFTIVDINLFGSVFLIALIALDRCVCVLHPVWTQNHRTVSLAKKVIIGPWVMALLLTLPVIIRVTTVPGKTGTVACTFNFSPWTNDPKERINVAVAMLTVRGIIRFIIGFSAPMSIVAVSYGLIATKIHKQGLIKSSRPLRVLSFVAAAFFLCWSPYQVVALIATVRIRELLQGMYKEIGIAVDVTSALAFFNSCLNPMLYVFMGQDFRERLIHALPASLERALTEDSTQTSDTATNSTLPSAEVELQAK

[1] = tested on: neutrophil-like differentiated HL-60 cells (dHL-60); type: cell-based, human; conditions: CV peptides 10 μM, n = 3–5
neutrophils = type: cell-based, human
[2] = tested on: ERK1/2 phosphorylation via FPR1; test: ERK1/2 phosphorylation assay in FPR1-transfected HEK293T cells; type: cell-based, human; conditions: MPR peptide 10 μM, 15 min
Procedure: 300.000 cells were seeded in each well of an uncoated 12-well plate. After 30 min settling time on ice, cells were treated with the respective stimulants and incubated at 37°C, 5% CO2 for 15 min. Cells were subsequently washed with 500 μL PBS and then lysed with 250 μL protein extraction buffer (50 mM Tris-HCl pH 8.0, 5 mM EDTA, 150 mM NaCl, 0.5% [v/v] Triton-X, 5 mM DTT, Roche complete protease inhibitor) for 5 min on ice. Lysates were then placed into protein low bind tubes (Eppendorf) and treated for 20 min in an ultrasonic bath. Samples were centrifuged at 4°C, 12.000 rpm for 20 min to remove debris. Supernatants were collected and stored at −20°C until further use. Protein concentrations were determined using ROTINanoquant in a F[…] multimode reader. Samples were mixed with LDS sample buffer and NuPAGE reduction agent and subsequently heated at 70°C for 10 min 20 μg of each sample were loaded onto a 10% Bis-Tris gel. SDS-PAGE was performed at […] for 40 min. Proteins were blotted onto nitrocellulose membranes using a Wet Tank blotting system at 350 mA for 60 min. Transfer was controlled by Ponceau S staining. Membranes were then blocked with 3% BSA and 0.1% Tween 20 in PBS (PBST) for 60 min. […] Detection of luminescence signals was performed with ECL Prime Kit in a LumiImager. […] Signals of actin staining were measured as described above. […]

human FPR3 = type: cell-based; conditions: MPR peptides 30 μM, n = 3
human FPR2 = type: cell-based; conditions: MPR peptides 30 μM, n = 3
FPR3 = conditions: cited from earlier work
Excerpt: (§1) Besides viral peptides that interact with FPR1 and FPR2, we identified a large novel group of FPR3 specific viral activators - a receptor for which very few biological relevant activators have been described yet,[53]^,[72] leaving much room for speculations about its major biological function.[1]^,[2] In contrast to FPR1 and FPR2, for which a large panel of receptor subtype-selective ligands have been described, only two biological relevant agonists with a known preference for FPR3 were identified. One is the mitochondrial-derived neuroprotective peptide Humanin[51]^,[52]^,[73] that binds to F ...

FPR2 = conditions: cited from earlier work
Excerpt: as §1

[3] = tested on: human polymorphonuclear granulocytes (PMN; neutrophils); type: cell-based; conditions: mix at 3 μM, 1 μM, 0.3 μM; MPR peptide 10 μM co-applied, n = 3
[4] = tested on: MMP-9 release of isolated PMNs; type: cell-based, human; conditions: activator mix 3 μM with MPR peptide, n = 5

For `CSCC[C@H](N)C(=O)N[C@@H](Cc1ccc(O)cc1)C(=O)N[C@H](C(=O)N[C@@H](CCCCN)C(=O)N[C@@H](Cc1c[nH]c2ccccc12)C(=O)N1CCC[C@H]1C(=O)N[C@@H](Cc1c[nH]c2ccccc12)C(=O)N[C@@H](Cc1ccc(O)cc1)C(=O)N[C@H](C(=O)N[C@@H](Cc1c[nH]c2ccccc12)C(=O)N[C@@H](CC(C)C)C(=O)O)C(C)C)C(C)C` [CV2*] (H-MYVKWPWYVWL-OH; N-terminus and C-terminus assumed), the “binding affinity for FPR1, FPR2, and FPR3, fold lower than the other MPR peptides” value (FPR1) was “approximately 10 fold”, the “calcium signal in dHL-60 cells” value [1] was “positive calcium flux” and the neutrophil migration (neutrophils; MPR peptide 10 μM, 90 min, n = 3-5) was “triggers”. The “ERK signaling via FPR1” value [2] was “triggers”, the “calcium response of FPR3-transfected cells” value (human FPR3) was “responded; also recorded: strongest; also recorded: FPR3 activation” and the “calcium levels in FPR2 transfected cells” value (human FPR2) was “strongest”.

For “F2L: acetylated 21mer N-terminal cleavage product of heme-binding-protein-1”, the “concentrations that activate FPR3” value (FPR3) is listed as “low nanomolar” and the “concentrations that activate FPR2” value (FPR2) is listed as “low micromolar”.

With `CC[C@H](C)[C@H](NC(=O)[C@H](Cc1ccc(O)cc1)NC(=O)[C@@H](NC(=O)[C@@H](N)CCC(=O)O)[C@@H](C)O)C(=O)N[C@@H](CCCCN)C(=O)N[C@@H](Cc1c[nH]c2ccccc12)C(=O)N1CCC[C@H]1C(=O)N[C@@H](Cc1c[nH]c2ccccc12)C(=O)N[C@@H](Cc1c[nH]c2ccccc12)C(=O)N[C@H](C(=O)N[C@@H](Cc1c[nH]c2ccccc12)C(=O)N[C@@H](CC(C)C)C(=O)O)C(C)C` [CV1] the “effect on activator-mix-induced calcium flux in neutrophils” value [3] was “calcium flux suppression”, the “effect on activator-mix-triggered MMP-9 release” value [4] was “attenuated” and the “inhibition of the migratory response to the activator peptide mix” value (neutrophils; MPR peptide 10 μM co-applied, n = 5) was “near complete inhibition”.

Source: publication PMC12284294 (iScience, 2025)
